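Method: 48-hour compound exposure of cells in 96-well plates, five concentrations, linear interpolation of endpoints. Here, GI50 denotes the concentration required for 50% inhibition of growth.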 The source made the active and inactive calls. No stated cut-off is given here; in the data, active = GI50 up to about 1.1 µM and inactive = higher.
Tests used:
Assay in all cases: DTP human tumour cell line panel, 48 h
786-0 = system: 786-0
A498 = system: A498
ACHN = system: ACHN
BT-549 = system: BT-549
CAKI-1 = system: CAKI-1
CCRF-CEM = system: CCRF-CEM
COLO 205 = system: COLO 205
DU-145 = system: DU-145
EKVX = system: EKVX
HCT-116 = system: HCT-116
HCT-15 = system: HCT-15
HL-60 = system: HL-60
HOP-62 = system: HOP-62
HT-29 = system: HT-29
Hs-578T = system: Hs-578T
IGROV-1 = system: IGROV-1
K562 = system: K562
KM12 = system: KM12
LOX IMVI = system: LOX IMVI
M14 = system: M14
MCF7 = system: MCF7
MDA-MB-231 = system: MDA-MB-231
MDA-MB-435 = system: MDA-MB-435
MDA-N = system: MDA-N
MOLT-4 = system: MOLT-4
Malme-3M = system: Malme-3M
NCI-H226 = system: NCI-H226
NCI-H23 = system: NCI-H23
NCI-H460 = system: NCI-H460
NCI/ADR-RES = system: NCI/ADR-RES
OVCAR-3 = system: OVCAR-3
OVCAR-5 = system: OVCAR-5
OVCAR-8 = system: OVCAR-8
PC-3 = system: PC-3
RPMI-8226 = system: RPMI-8226
RXF 393 = system: RXF 393
SF-268 = system: SF-268
SF-295 = system: SF-295
SF-539 = system: SF-539
SK-MEL-28 = system: SK-MEL-28
SK-MEL-2 = system: SK-MEL-2
SK-MEL-5 = system: SK-MEL-5
SK-OV-3 = system: SK-OV-3
SN12C = system: SN12C
SNB-19 = system: SNB-19
SNB-75 = system: SNB-75
SR = system: SR
SW-620 = system: SW-620
TK-10 = system: TK-10
U-251 = system: U-251
UACC-257 = system: UACC-257
UACC-62 = system: UACC-62
A549 = system: A549
HCC 2998 = system: HCC 2998
HOP-92 = system: HOP-92
OVCAR-4 = system: OVCAR-4
UO-31 = system: UO-31

O=c1oc2ccccc2n1CCN1CCCCC1
GI50 (786-0): > 100 µM (inactive) | GI50 (A498): > 100 µM (inactive) | GI50 (ACHN): > 100 µM (inactive) | GI50 (BT-549): > 100 µM (inactive) | GI50 (CAKI-1): > 100 µM (inactive) | GI50 (CCRF-CEM): > 100 µM (inactive) | GI50 (COLO 205): > 100 µM (inactive) | GI50 (DU-145): > 100 µM (inactive) | GI50 (EKVX): > 100 µM (inactive) | GI50 (HCT-116): > 100 µM (inactive) | GI50 (HCT-15): > 100 µM | GI50 (HL-60): > 100 µM (inactive) | GI50 (HOP-62): > 100 µM (inactive) | GI50 (HT-29): > 100 µM (inactive) | GI50 (Hs-578T): > 100 µM (inactive) | GI50 (IGROV-1): > 100 µM (inactive) | GI50 (K562): > 100 µM (inactive) | GI50 (KM12): > 100 µM (inactive) | GI50 (LOX IMVI): > 100 µM (inactive) | GI50 (M14): > 100 µM (inactive) | GI50 (MCF7): > 100 µM (inactive) | GI50 (MDA-MB-231): > 100 µM (inactive) | GI50 (MDA-MB-435): > 100 µM (inactive) | GI50 (MDA-N): > 100 µM (inactive) | GI50 (MOLT-4): > 100 µM (inactive) | GI50 (Malme-3M): > 100 µM (inactive) | GI50 (NCI-H226): > 100 µM (inactive) | GI50 (NCI-H23): > 100 µM (inactive) | GI50 (NCI-H460): > 100 µM (inactive) | GI50 (NCI/ADR-RES): > 100 µM (inactive) | GI50 (OVCAR-3): > 100 µM (inactive) | GI50 (OVCAR-5): > 100 µM (inactive) | GI50 (OVCAR-8): > 100 µM (inactive) | GI50 (PC-3): > 100 µM (inactive) | GI50 (RPMI-8226): > 100 µM (inactive) | GI50 (RXF 393): > 100 µM (inactive) | GI50 (SF-268): > 100 µM (inactive) | GI50 (SF-295): > 100 µM (inactive) | GI50 (SF-539): > 100 µM (inactive) | GI50 (SK-MEL-28): > 100 µM (inactive) | GI50 (SK-MEL-2): > 100 µM (inactive) | GI50 (SK-MEL-5): > 100 µM (inactive) | GI50 (SK-OV-3): > 100 µM (inactive) | GI50 (SN12C): > 100 µM (inactive) | GI50 (SNB-19): > 100 µM (inactive) | GI50 (SNB-75): > 100 µM (inactive) | GI50 (SR): > 100 µM (inactive) | GI50 (SW-620): > 100 µM (inactive) | GI50 (TK-10): > 100 µM (inactive) | GI50 (U-251): > 100 µM (inactive) | GI50 (UACC-257): > 100 µM (inactive) | GI50 (UACC-62): > 100 µM (inactive)

CC(C)=CCC\C(C)=C/C=C/C(C)=C\C=C\C(C)=C/C=C/C=C(C)\C=C\C=C(C)/C=C/C=C(/C)CCC=C(C)C
GI50 (786-0): > 100 µM (inactive) | GI50 (A498): > 100 µM (inactive) | GI50 (A549): > 100 µM (inactive) | GI50 (ACHN): > 100 µM (inactive) | GI50 (BT-549): > 100 µM (inactive) | GI50 (CAKI-1): > 100 µM (inactive) | GI50 (CCRF-CEM): > 100 µM (inactive) | GI50 (COLO 205): > 100 µM (inactive) | GI50 (DU-145): > 100 µM (inactive) | GI50 (EKVX): > 100 µM (inactive) | GI50 (HCC 2998): > 100 µM (inactive) | GI50 (HCT-116): > 100 µM (inactive) | GI50 (HCT-15): > 100 µM | GI50 (HL-60): > 100 µM (inactive) | GI50 (HOP-62): > 100 µM (inactive) | GI50 (HOP-92): > 100 µM (inactive) | GI50 (HT-29): > 100 µM (inactive) | GI50 (Hs-578T): > 100 µM (inactive) | GI50 (IGROV-1): > 100 µM (inactive) | GI50 (K562): > 100 µM (inactive) | GI50 (KM12): > 100 µM (inactive) | GI50 (LOX IMVI): > 100 µM (inactive) | GI50 (M14): > 100 µM (inactive) | GI50 (MCF7): > 100 µM (inactive) | GI50 (MDA-MB-231): > 100 µM (inactive) | GI50 (MDA-MB-435): > 100 µM (inactive) | GI50 (MDA-N): > 100 µM (inactive) | GI50 (MOLT-4): > 100 µM (inactive) | GI50 (Malme-3M): > 100 µM (inactive) | GI50 (NCI-H226): > 100 µM (inactive) | GI50 (NCI/ADR-RES): > 100 µM (inactive) | GI50 (OVCAR-3): > 100 µM (inactive) | GI50 (OVCAR-4): > 100 µM (inactive) | GI50 (OVCAR-5): > 100 µM (inactive) | GI50 (OVCAR-8): > 100 µM (inactive) | GI50 (PC-3): > 100 µM (inactive) | GI50 (RXF 393): > 100 µM (inactive) | GI50 (SF-268): > 100 µM (inactive) | GI50 (SF-295): > 100 µM (inactive) | GI50 (SF-539): > 100 µM (inactive) | GI50 (SK-MEL-28): > 100 µM (inactive) | GI50 (SK-MEL-2): > 100 µM (inactive) | GI50 (SK-MEL-5): > 100 µM (inactive) | GI50 (SK-OV-3): > 100 µM (inactive) | GI50 (SN12C): > 100 µM (inactive) | GI50 (SNB-19): > 100 µM (inactive) | GI50 (SNB-75): > 100 µM (inactive) | GI50 (SR): > 100 µM (inactive) | GI50 (SW-620): > 100 µM (inactive) | GI50 (TK-10): > 100 µM (inactive) | GI50 (UACC-257): > 100 µM (inactive) | GI50 (UACC-62): > 100 µM (inactive) | GI50 (UO-31): > 100 µM (inactive)

— ChEMBL document CHEMBL1201862, “PubChem BioAssay data set” (2004)
